In patent publication US20200360311A1, “USE OF 3-METHYLMETHCATHINONE” (MIND MEDICINE, NC., priority 2017, published 2020):

What was measured:
[1] = Human subject's perception of 3-MMC's effect after oral administration; assay type: in vivo; settings: human subjects
Description: The present inventors have observed that, in some embodiments the onset of human subject's perception of 3-MMC's effect is approximately 30-90 minutes following oral administration, varying according to whether the 3-MMC was administered to a fasting (more rapid onset), or following a meal (less rapid onset). In some cases, the perception of peak effect of 3-MMC in human subjects occurred between 10 to 30 minutes after the initial perception of onset of 3-MMC's effect. The present inventors further observed that the duration of perception of the effect of 3-MMC in human subjects was, in most cases, for no greater than 4 hours following oral administration.

[2] = Case Study I: 3-MMC-assisted psychotherapy for post-traumatic stress disorder (PTSD); assay type: in vivo, human; settings: person, three 3-MMC-assisted psychotherapy sessions, 200 milligrams orally
Text: Person suffering from PTSD who was previously incorrectly diagnosed with bipolar disorder, unable to work was under the care of a psychiatrist with no improvement in 4 years. […] In this case, the therapy consisted of both a male and female therapist in a room designed for this therapy (soft lighting, bed, attractive pillows, carefully chosen music, inspirational art—spiritual and nature). The patient was taught relaxation and breathing techniques and briefed in what to expect from the experience. In this case 200 milligrams of 3-MMC was given orally and the patient then lay down on the bed and listened to soothing music for 1.5 hours with eye shades on (internal experience). […] The therapists engaged in psychotherapy for 2 hours after which the patient once again lay down and put on the eyeshades for another 2 hours. Subsequently, the patient re-engaged with the therapists and explored their insights about how they could reframe the traumatic memory to be a positive learning experience.

[3] = Case Study II: 3-MMC couple's therapy; assay type: in vivo, human; settings: heterosexual couple, 6 sessions over 6 months, 150 milligrams each orally plus booster 100 milligrams 1 hour later
Text: Heterosexual couple married for 17 years were caught in a cycle of repetitive conflict over what they both agreed were trivial issues. They described intense, mutual emotional reactivity and angry outbursts which was problematic enough to begin to discuss divorcing. As a last attempt to resolve their conflicts they agreed to participate in once a month 3-MMC couple's therapy. […] In this case the therapy consisted of one therapist who assessed the couple and prepared for the 3-MMC sessions with 2 non-3MMC sessions where the couple was taught a specific communication technique (Non Violent Communication). The space was a normal therapist's office with comfortable furnishings, 3 chairs and an adjoining kitchen. The 3-MMC was given orally which a dosage of 150 milligrams each followed by a booster dosage of 100 milligrams given 1 hour after the first dosage. The couple alternated between periods of listening to relaxing music and conversation, where they explored their own perspectives on how to communicate in relationship both currently and historically. The counsellor would translate some of the couple's statements in the language of non-violent communication and encourage self responsibility. The end of the session occurred 5 hours after the booster dose and a light meal was prepared and served and the couple and therapist ate and debriefed the session. […]

[4] = Case Study III: 3-MMC assisted therapy for relationship distress; assay type: in vivo, human; settings: person, four 3-MMC assisted psychotherapy sessions, 300 milligrams orally
Description: Single professional entered in to 3-MMC assisted therapy to understand why their relationships with men never lasted more than a few months. […] In this case the patient was assessed and prepared by the female therapist in two preliminary sessions where the patients relationship history was explored. The patient was encouraged to consider the connection between their experience of their parent's relationship when they were a child and their reaction to men they dated which was coloured by their past history. The location of the therapy was the living room of the therapist which had been prepared with inspirational art and wall hangings. The sound system consisted of headphones and an ipod with soothing/spiritual music. On the treatment days the patient was given 300 milligrams of 3-MMC orally. The treatment session started by the therapist guiding a meditation exercise and then the patient was encouraged to reflect internally by lying down with eyeshades and listening to the music. In this case the internal experience was 20 minutes after which the patient removed the eyeshades and turned off the music and proceeded to express intense emotions which related to their past anger at their parent. […]

[5] = Case Study IV: 3-MMC-assisted psychotherapy for PTSD and Generalized Anxiety Disorder (GAD); assay type: in vivo, human; settings: person, 200-400 mg twice weekly on two consecutive days for 8 weeks; from week 5 also EMDR with propanolol
Text: A person had been suffering from Post traumatic Stress Disorder (PTSD), depression, and General Anxiety Disorder (GAD).
The symptoms they experienced were panic attacks, hyperventilation, pain in the chest, numbness, and tingling in the extremities, Irritable-Bowel Syndrome (IBS), nightmares, and insomnia.
The PTSD had been caused by a particular life-threatening event, as well as other related incidences that had unfolded in their youth. The psychological ramifications of these events went undiagnosed for many years, although they were eventually treated for anxiety and depression. They refused however, to take the anti-depressants that their physician was willing to prescribe them, and only occasionally would take 5-10 mg Oxazepam for acute panic attacks.
At the time that they started with the 3-MMC-assisted psychotherapy, they had been suffering from an occupational burnout for 4 months already cf. DC-10 Z-73.0.
3-MMC was administered twice weekly on two consecutive days at a dosage of 200-400 mg each time for a period of 8 weeks. Starting at week 5; 3-MMC-assisted psychotherapy took place once a week. Each session lasted 6.5-10 h with an average of 8.5 h per session. […]

[6] = animal models, cited from earlier work

CNC(C)C(=O)c1cccc(C)c1 (stereo not drawn) [3-MMC, 3-methylmethcathinone]
onset of subject's perception of effect ([1]; following oral administration, fasting more rapid, following a meal less rapid): 30 to 90 min | duration of perception of the effect ([1]; following oral administration, in most cases): ≤ 4 h | perception of peak effect ([1]; time after the initial perception of onset of effect, in some cases): 10 to 30 min | clinical outcome of PTSD patient [2]: no longer diagnosable with either PTSD or bipolar and was able to return to gainful employment | outcome of couple's therapy [3]: able to take responsibility for their own problematic behaviour and negotiate a more functional relationship | outcome of therapy for relationship distress [4]: understood their previously unconscious behaviour pattern | level of fear associated with traumatic memories [5]: led the level of associated fear to decrease with each subsequent session | time at which peak serum concentrations are apparent ([6]; after oral administration): 5 to 10 min | apparent plasma half-life ([6]; after oral ingestion): approximately 0.8 hours
